According to patent US6995157B2, “Substituted 4,5-dihydro-1,2,4-triazin-3-ones, 1,2,4-triazin-3-ones, and their use as fungicides and insecticides” (priority 2000, dated 2006):

Columns and labels:
Pyricularia oryzae = assay type: in vivo; details: protectant, 300 g/ha, greenhouse, inoculated 1 day after spraying, rated six days after inoculation; 100 is total disease control, 0 is no disease control
Sphaerotheca fuliginea = details: in vivo

For `CCCCCN1N=C(c2ccccc2)C(OC)NC1=O` (racemic) [Compound 9], the RB percent control (Pyricularia oryzae) was 85% and the CPM percent control (Sphaerotheca fuliginea) was 0%.

Compound `COC1NC(=O)N(C)N=C1c1ccc(Cl)cc1` (racemic) [Compound 12] has an RB percent control (Pyricularia oryzae) of 80% and a CPM percent control (Sphaerotheca fuliginea) of 0%.

`COC1NC(=O)N(C(C)(C)C)N=C1c1ccc(Cl)cc1` (racemic) [Compound 14] showed an RB percent control (Pyricularia oryzae) of 90% and a CPM percent control (Sphaerotheca fuliginea) of 50%.

For `CCCCCCCCCCN1N=C(c2ccc(Cl)cc2)C(OC)NC1=O` (racemic) [Compound 17], the RB percent control (Pyricularia oryzae) was 80% and the CPM percent control (Sphaerotheca fuliginea) was 0%.

`COC1NC(=O)N(c2ccccc2)N=C1c1ccc(Cl)cc1` (racemic) [Compound 18] was tested, and the RB percent control (Pyricularia oryzae) was 85% and the CPM percent control (Sphaerotheca fuliginea) was 80%.

For `COC1NC(=O)N(CC(F)(F)F)N=C1c1ccc(Cl)cc1` (racemic) [Compound 20], the RB percent control (Pyricularia oryzae) was 80% and the CPM percent control (Sphaerotheca fuliginea) was 0%.

`CCCCCN1N=C(c2ccc(Cl)cc2)C(OC)NC1=O` (centres unmarked) [Compound 1, 2-pentyl-5-methoxy-6-(4-chlorophenyl)-4,5-dihydro-1,2,4-triazin-3-one] was tested, and the RB percent control (Pyricularia oryzae) was 85% and the CPM percent control (Sphaerotheca fuliginea) was 0%.

`CCCCCn1nc(-c2ccc(Cl)cc2)cnc1=O` [Compound 2, 2-pentyl-6-(4-chlorophenyl)-1,2,4-triazin-3-one] was tested, and the RB percent control (Pyricularia oryzae) was 85% and the CPM percent control (Sphaerotheca fuliginea) was 50%.

With `CCCCN1N=C(c2ccc(Cl)cc2)C(OC)NC1=O` (centres unmarked) [Compound 3, 2-n-butyl-5-methoxy-6-(4-chlorophenyl)-4,5-dihydro-1,2,4-triazin-3-one] the RB percent control (Pyricularia oryzae) was 85% and the CPM percent control (Sphaerotheca fuliginea) was 0%.

In the case of `CCCCn1nc(-c2ccc(Cl)cc2)cnc1=O` [Compound 4, 2-n-butyl-6-(4-chlorophenyl)-1,2,4-triazin-3-one], the RB percent control (Pyricularia oryzae) is reported as 85% and the CPM percent control (Sphaerotheca fuliginea) is reported as 0%.

In the case of `CCCCN1N=C(c2ccc(Cl)cc2)CN(S(C)(=O)=O)C1=O` [Compound 5, 2-n-butyl-4-methanesulfonyl-6-(4-chlorophenyl)-4,5-dihydro-1,2,4-triazin-3-one], the RB percent control (Pyricularia oryzae) is reported as 0% and the CPM percent control (Sphaerotheca fuliginea) is reported as 90%.

`CCCCCn1nc(-c2ccc(OC)cc2)c(-c2ccc(OC)cc2)nc1=O` [Compound 8, 2-n-pentyl-5,6-bis-(4-methoxyphenyl)-1,2,4-triazin-3-one] gave an RB percent control (Pyricularia oryzae) of 50% and a CPM percent control (Sphaerotheca fuliginea) of 0%.

In the case of `CCCCCn1nc(-c2ccccc2)cnc1=O` [Compound 10], the RB percent control (Pyricularia oryzae) is reported as 80% and the CPM percent control (Sphaerotheca fuliginea) is reported as 0%.

With `Cn1nc(-c2ccc(Cl)cc2)cnc1=O` [Compound 11] the RB percent control (Pyricularia oryzae) was 80% and the CPM percent control (Sphaerotheca fuliginea) was 0%.

`CC(C)(C)n1nc(-c2ccc(Cl)cc2)cnc1=O` [Compound 13] showed an RB percent control (Pyricularia oryzae) of 85% and a CPM percent control (Sphaerotheca fuliginea) of 0%.

Work on `O=C1NCC(c2ccc(Cl)cc2)=NN1c1ccccc1` [Compound 15] yielded an RB percent control (Pyricularia oryzae) of 75% and a CPM percent control (Sphaerotheca fuliginea) of 0%.

Compound `CS(=O)(=O)N1CC(c2ccc(Cl)cc2)=NN(c2ccccc2)C1=O` [Compound 16] has an RB percent control (Pyricularia oryzae) of 50% and a CPM percent control (Sphaerotheca fuliginea) of 0%.

`O=C1NCC(c2ccc(Cl)cc2)=NN1CC(F)(F)F` [Compound 19] showed an RB percent control (Pyricularia oryzae) of 75% and a CPM percent control (Sphaerotheca fuliginea) of 0%.

Compound `CN1CC(c2ccc(Cl)cc2)=NN(C#N)C1=O` [Compound 27] has an RB percent control (Pyricularia oryzae) of 50% and a CPM percent control (Sphaerotheca fuliginea) of 0%.

With `C#CCN1N=C(c2ccc(Cl)cc2)CN(CCC)C1=O` [Compound 28] the RB percent control (Pyricularia oryzae) was 50% and the CPM percent control (Sphaerotheca fuliginea) was 0%.

`CN1CC(c2ccccc2Cl)=NN(Cc2ccc(Cl)cc2)C1=O` [Compound 29] was tested, and the RB percent control (Pyricularia oryzae) was 50%.

`CN1CC(c2ccc(Cl)cc2)=NN(Cc2ccc(Cl)cc2)C1=O` [Compound 30] gave an RB percent control (Pyricularia oryzae) of 75%.

Work on `CCC#CCn1nc(-c2ccc(Cl)cc2)cnc1=O` [Compound 31] yielded an RB percent control (Pyricularia oryzae) of 85% and a CPM percent control (Sphaerotheca fuliginea) of 50%.

Compound `CCC#CCN1CC(c2ccc(Cl)cc2)=NN(C)C1=O` [Compound 32] has an RB percent control (Pyricularia oryzae) of 75% and a CPM percent control (Sphaerotheca fuliginea) of 75%.

In the case of `CN1N=C(c2ccc(Cl)cc2)CNC1=O` [Compound 33], the RB percent control (Pyricularia oryzae) is reported as 80% and the CPM percent control (Sphaerotheca fuliginea) is reported as 0%.

In the case of `CCCCCn1nc(-c2ccc(OC)cc2)cnc1=O` [Compound 34], the RB percent control (Pyricularia oryzae) is reported as 85% and the CPM percent control (Sphaerotheca fuliginea) is reported as 0%.
